Laboratory results as given in PubChem BioAssay AID434967 (Sanford-Burnham Center for Chemical Genomics, 2010).

Experiment: HIV fusion inhibitor analogs, peptide binding, SAR follow-up, biochemical, fluorescence quenching (AID 434967)
Conditions: cell-free peptide binding, 30 min

Compound | IC50
COc1ccc(C(=O)Oc2ccc(C=NNc3ccc(Cl)c(C(=O)O)c3)cc2OC)cc1 | 5.16 µM
O=C(O)c1cc(NN=Cc2ccc(-c3ccccc3)cc2)ccc1Cl | 14.8 µM
Cc1c2c(=O)n(-c3nc4ccccc4s3)nc-2cc(O)n1Cc1ccccc1 | 10.1 µM
O=C(O)c1ccccc1N=Nc1c(O)[nH]c2ccc([N+](=O)[O-])cc12 | 13.3 µM
CCOC(=O)c1sc(N2C(=O)C(O)=C(C(=O)c3ccc(C)o3)C2c2cccc([N+](=O)[O-])c2)nc1C (stereo not given) | 10.5 µM
COc1cc(C=NNc2ccc(Cl)c(C(=O)O)c2)ccc1OC(=O)c1ccc(F)cc1 | 8.03 µM
O=C(N/N=C/c1c(O)n(C2CCCCC2)c(=S)[nH]c1=O)c1ccccc1O | 9 µM
N#C/C(=C\c1ccc(O)c([N+](=O)[O-])c1)c1nc2ccccc2s1 | 6.25 µM
COc1cc(C=NNc2ccc(Cl)c(C(=O)O)c2)ccc1OC(=O)c1ccccc1F | 25.9 µM
CC(C)(C)c1cc(-c2csc(Nc3ccccc3)[n+]2Cc2ccc(C(=O)O)cc2)cc(C(C)(C)C)c1O | 27.3 µM
